Where two headings read alike, the source gives them in different places.
Tests used:
[1] = system: L. donavani infected THP1 cells; assay: Calcium levels in L. donavani infected THP1 cells (Fluo4-AM); type: cell-based, Leishmania donovani; settings: 10 μM, within few seconds, preliminary
Procedure: A macrophage differentiated cell culture of THP1 cell lines by phorbol 12-myristate 13-acetate (PMA) concentration of 15 ng/ml was established on 15 mm glass bottom petri dishes. The confluent cells were infected with leishmania promastigotes in 1:5 ratio. The infected macrophages were washed after 24 hr.
Incubation was conducted to remove uninfecting promastigotes with same RPMI medium with 6% FCS. The culture was then washed twice in HEPES-buffered saline solution (HBSS) (in mM: 25 HEPES, 121 NaCl, 5 NaHCO3, 4.7 KCl, 1.2 KH2PO4, 1.2 MgSO4, 2.0 CaCl2), 10 glucose, 0.04 probenecid, and 0.25% (w/v) fatty acid-free BSA, pH 7.4). The culture was switched to the same buffer with Fluo4-AM (1×), Hoechst 33258 (1×) and charged for 40 minutes. The cells were then washed in same buffer without dye and mounted on the stage of inverted LSM 510 Zeiss, […], 1.4 NA, oil-immersion objective, zoom 4-6, z-stacks of […] thin optical sections, 4-8× average, 2,000×2,000 pixel window, range indicator used for optimized illumination, and 488, 543, 633 laser lines used for excitation. Compounds Miltefosine, Amphotericin B, calxinin and DMSO were added during time-course experiments. Preliminary results of Amastigotes treated with DMSO (negative control) and treated Compound 1 (10 μM) were generated.

human platelets = assay: Agonist-induced platelet aggregation; type: cell-based; settings: up to 20 μg/ml
Procedure: (§1) Studies were performed to assess the effect of Calxinin on hemostatic parameters using plasmatic and whole blood assays.

[2] = In vitro cytotoxicity, HepG2; type: cell-based; settings: human, HepG2 cells; read-out: CC50 (50% cell toxicity)
primary and human cells = assay: Cell cytotoxicity assays in primary and human cells (summary statements); type: cell-based
Procedure: PBMC were isolated from healthy donors using the Ficoll-Paque™ technique (GE Healthcare Bioscience AB, Uppsala, Sweden) from donor leukopack samples obtained from LUMC blood bank services. […] Robust cells at a concentration of 80,000 cells/ml were plated into 96-well plates and incubated for 24 hours. Cell viability and proliferation was determined by use of both MTT and Cell Titer Glo@ assays for both cell types. MTT assay was conducted by addition of 10 μL MTT solution (5 mg/mL) into each well, incubated for 4 hour at 37° C. followed by addition of 50 μL DMSO to dissolve the formazan precipitate according to the manufacturer's protocol. Aliquots were drawn from each well and color intensity was measured spectrophotometrically in SpectraMax® M5 Multi-Mode Microplate Reader.
In addition, the cell viability of Huh 7 and HEK293 cells was evaluated post drug exposure using the Alamar Blue assay [Riss, Terry L., et al. “Cell viability assays.” Assay Guidance Manual [Intenet]. […] Cells (1×10/well) were exposed to varying concentrations of test compounds, for 24 hours in 96-well plate format along with 10/100 μL Alamar Blue solution (10×=4.8 mM in phosphate buffer) per well.

[3] = system: sexual erythrocytic stages of PfDd2 cultures; assay: Anti-gametocyte activity, stage I and II gametocytes; type: cell-based, Plasmodium falciparum
Procedure: The effect of Compound I was tested on the development of sexual erythrocytic stages of PfDd2 cultures. Stage I and II gametocytes, were incubated for forty-eight hours with drug concentration considering the IC50 values of compounds at asexual stage assay.

[4] = system: P. falciparum, strain IPC 3445; assay: Growth inhibition of ART resistant field strain; type: cell-based; settings: Plasmodium falciparum, 72 h, read-out: IC50, ART resistant strain IPC 3445
Procedure: Plasmodium falciparum (P. falciparum), strain IPC 3445 was isolated in 2010 from the blood of a human patient with malaria in Pailin province, western Cambodia. Parasites were grown in the lab and tested with different concentrations of the Calxinin and DHA (100 μM-90 nM) for 72 hr incubations.

[5] = Hemostatic parameters, plasmatic and whole blood assays (thrombelastography)
Procedure: as §1

parasitized RBC = assay: Calcium levels in parasitized RBC; type: cell-based; settings: 10 μM, within a few seconds, preliminary
Procedure: No difference in the activity of the Calcium T Channel was observed under control conditions and with increasing concentrations of the Calxinin molecule, there is no difference in the amplitude of the calcium channel currents, nor in the dependence with the membrane potential of calcium channel activation up to 1 microMolar, that is […] higher than the IC50 to kill the parasite. Human T-type calcium channel currents were measured with the Patch clamp on the “whole cell” configuration in HEK cells constitutively expressing human T type Calcium channel. […] As shown, in FIG. 9 no difference in the amplitude of the calcium channel currents, nor in the dependence with the membrane potential of calcium channel activation even at 11 times the IC50 concentration. Preliminary results of parasitized RBC treated with CQ (I0 μM)+DMSO (negative control) and treated Compound I (10 μM, data not shown) were generated.

[6] = system: Field isolates from Kenya (P. falciparum infected blood); assay: Screening against freshly collected field isolates; type: cell-based; settings: Plasmodium falciparum

For `NC(Cc1ccccc1)C(O)CN1CCN(Cc2ccc(C(F)(F)F)cc2)CC1` (centres unmarked) [Compound I], the “calcium levels of Macrophage+L. donavani” value [1] was “changes in the calcium levels”, the “agonist-induced aggregation of human platelets” value (human platelets) was “did not alter agonist-induced aggregation of human platelets” and the CC50 [2] was 1350 µM. For the same compound, the “toxicity to HEK293, Huh 7.1, HepG2 and PBMCs” value (primary and human cells) was “did not show any toxicity”, the “concentration up to which no toxicity was seen” value (primary and human cells; primary and human cells) was over 30 µM and the “maturation of stage III to V gametocytes (PfDd2)” value ([3]; 48 hours at asexual stage IC50, vs DMSO control) was 41.0. The gametocyte morphology ([3]; 48 hours, vs DMSO control) was “morphologically distorted gametocytes”, the “decreased proportion of stage III to V gametocytes” value ([3]; 48 hrs at 88 nM) was “up to 59%” and the IC50 [4] was 0.0926 µM. The “anticoagulant effect (hemostatic parameters)” value [5] was “no adverse impact”, the “clot formation by thrombelastography” value ([5]; up to 20 μg/ml) was “did not impact clot formation” and the “calcium levels of packed red blood cells (pRBCs)” value (parasitized RBC) was “changes in the calcium levels”. The IC50 ([6]; read-out: Field isolates from Kenya IC50, nM (±SD)) was 50 nM and the IC50 ([6]; read-out: IC50 against freshly collected field isolates of P. falciparum infected blood) was 643 nM.
